Reference: patent publication US20140094461A1, “BIOMARKERS FOR HEDGEHOG INHIBITOR THERAPY” (priority 2011, published 2014)

Columns and labels:
[1] = tested on: basal cell carcinoma (BCC); experiment: Phase I dose escalation trial, adult BCC patients with PTCH or SMO mutations: clinical response; type: in vivo, human
From the text: In addition to the Hedgehog-activated medulloblastoma, basal cell carcinoma (BCC) is another cancer type that is mostly driven by mutations or genetic lesions of the Hedgehog pathway genes that lead to constitutive activation of the Hedgehog pathway. […] In an ongoing phase I, dose escalation trial of methyl-4′-trifluoromethoxy-biphenyl-3-carboxylic acid [6-(cis-2,6-dimethyl-morpholin-4-yl)-pyridin-3-yl]-amide, an Hedgehog signaling inhibitor antagonizing SMO, adult BCC patients were enrolled among patients with other solid tumors. Mutational analysis of PTCH1 and SMO by directly sequencing was performed to the archival tumor specimens collected at the time of diagnosis from the enrolled BCC patients. […] The method of the invention was used to determine the Hedgehog activation status of BCC tumors from these patients. With both the 5-gene and 8-gene models, the probability score of all 6 cases were above the pre-specified cut-off and therefore all were called Hedgehog-activated. Among these 6 patients, 2 achieved confirmed partial response on methyl-4′-trifluoromethoxy-biphenyl-3-carboxylic acid [6-(cis-2,6-dimethyl-morpholin-4-yl)-pyridin-3-yl]-amide treatment, 2 had stable disease for more than 6 month, and the other 2 patients discontinued methyl-4′-trifluoromethoxy-biphenyl-3-carboxylic acid [6-(cis-2,6-dimethyl-morpholin-4-yl)-pyridin-3-yl]-amide due to adverse events after less than 2 months of therapy which might be too brief to observe any clinical activities. […] The method of the invention can be used for identifying other types of tumor with the same underlining Hedgehog-mutation driven etiology that might preferentially benefit from a Hedgehog signaling inhibitor therapy.

medulloblastoma = experiment: Phase I dose escalation trial, adult medulloblastoma patients: clinical response; type: in vivo, human
From the text: Adult cancer patients including patients with medulloblastoma, were enrolled into an ongoing phase I, dose escalation trial of methyl-4′-trifluoromethoxy-biphenyl-3-carboxylic acid [6-(cis-2,6-dimethyl-morpholin-4-yl)-pyridin-3-yl]-amide to evaluate safety and tolerability of methyl-4′-trifluoromethoxy-biphenyl-3-carboxylic acid [6-(cis-2,6-dimethyl-morpholin-4-yl)-pyridin-3-yl]-amide and assess maximally tolerated dose of methyl-4′-trifluoromethoxy-biphenyl-3-carboxylic acid [6-(cis-2,6-dimethyl-morpholin-4-yl)-pyridin-3-yl]-amide for adult patients. Archival FFPE tumor specimens collected prior to the start of the trial are available for analysis by the method of the invention from 3 enrolled medulloblastoma patients in this trial.
Based on the 8-gene and 5-gene predictive model, the method of the invention was used to determine the Hedgehog activation status in tumor for these 3 patients. The two responders were determined to have Hedgehog-activated tumor while the tumor from the non-responder was called non-Hedgehog-activated. In addition, the single genes, SPHK1, OTX2, SFRP1, PDLIM3, or SHROOM2 were each used to determine the Hedgehog activation status based on the pre-established cut-off for each of the genes. By each of the single gene, the same Hedgehog-activated and non-Hedgehog-activated calls were made to the two responders and one non-responder, respectively. Among the 3 patients, only one patient had adequate tumor tissue samples available for additional mutational analysis of the PTCH1 and SMO gene. […] Inactivating PTCH1 mutations have been identified as a major mechanism of constitutively activating Hedgehog pathway in medulloblastoma. Therefore, identification of this PTCH1 mutation provides a mechanistic basis for Hedgehog pathway activation and observed clinical activity against Hedgehog signaling inhibitor in this patient and further validates the finding by the method of the invention.

[2] = medulloblastoma patient 1, daily dose of 200 mg

With `Cc1c(C(=O)Nc2ccc(N3C[C@@H](C)O[C@@H](C)C3)nc2)cccc1-c1ccc(OC(F)(F)F)cc1` [methyl-4′-trifluoromethoxy-biphenyl-3-carboxylic acid [6-(cis-2,6-dimethyl-morpholin-4-yl)-pyridin-3-yl]-amide] the “number of patients with stable disease for more than 6 month” value ([1]; of 6 BCC patients with PTCH or SMO mutations) was 2 patients, the “number of patients with confirmed partial response” value ([1]; of 6 BCC patients with PTCH or SMO mutations, all called Hedgehog-activated) was 2 patients and the “number of patients who discontinued due to adverse events” value ([1]; of 6 BCC patients, after less than 2 months of therapy) was 2 patients. The “time of treatment until progression” value (medulloblastoma; 3rd medulloblastoma patient, daily dose of 200 mg) was 52 days, the clinical outcome (medulloblastoma; 3rd medulloblastoma patient, daily dose of 200 mg, non-Hedgehog-activated tumor) was “progressed rapidly” and the “duration of response before disease progression” value (medulloblastoma; [2]) was 4 months. The “time of treatment until partial response” value (medulloblastoma; [2]) was 2 months, the “tumor response by the RECIST criteria” value (medulloblastoma; medulloblastoma patient 1, daily dose of 200 mg, Hedgehog-activated tumor) was “partial response (PR)” and the “response measured by positron emission tomography (PET)” value (medulloblastoma; metastatic medulloblastoma patient without measurable lesion, 1500 mg daily dose, Hedgehog-activated tumor, PTCH1 mutation) was “metabolic partial response”. The “duration of metabolic partial response before disease relapse” value (medulloblastoma; metastatic medulloblastoma patient, 1500 mg daily dose) was 7 months.
